According to PubChem BioAssay (NCI):
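Five compound concentrations were applied to cells in 96-well plates for 48 hours; endpoints were derived by simple linear interpolation of the resulting dose-response curve. TGI is the concentration that stops growth completely.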

Assays:
Assay in all cases: NCI-60 cell line screen, 48 h
TK-10 renal = test system: TK-10 renal
LOX IMVI melanoma = test system: LOX IMVI melanoma
HCC-2998 colon = test system: HCC-2998 colon
COLO 205 colon = test system: COLO 205 colon
M14 melanoma = test system: M14 melanoma
OVCAR-5 ovarian = test system: OVCAR-5 ovarian
RPMI-8226 leukemia = test system: RPMI-8226 leukemia
SR leukemia = test system: SR leukemia
EKVX NSCLC = test system: EKVX NSCLC
A498 renal = test system: A498 renal
SF-268 CNS = test system: SF-268 CNS
RXF 393 renal = test system: RXF 393 renal
NCI-H226 lung = test system: NCI-H226 lung
UO-31 renal = test system: UO-31 renal
SW-620 colon = test system: SW-620 colon
DLD-1 colon = test system: DLD-1 colon
KM20L2 colon = test system: KM20L2 colon
HOP-18 NSCLC = test system: HOP-18 NSCLC
KM12 colon = test system: KM12 colon
K-562 leukemia = test system: K-562 leukemia
NCI-H23 lung = test system: NCI-H23 lung
RXF-631 renal = test system: RXF-631 renal
CAKI-1 renal = test system: CAKI-1 renal
SNB-78 CNS = test system: SNB-78 CNS
SF-295 CNS = test system: SF-295 CNS
SK-MEL-28 melanoma = test system: SK-MEL-28 melanoma
IGROV1 ovarian = test system: IGROV1 ovarian
NCI-H522 lung = test system: NCI-H522 lung
SNB-75 CNS = test system: SNB-75 CNS
SNB-19 CNS = test system: SNB-19 CNS
SK-OV-3 ovarian = test system: SK-OV-3 ovarian
DMS 273 small cell lung = test system: DMS 273 small cell lung
ACHN renal = test system: ACHN renal
NCI-H460 lung = test system: NCI-H460 lung
UACC-257 melanoma = test system: UACC-257 melanoma
OVCAR-8 ovarian = test system: OVCAR-8 ovarian
OVCAR-4 ovarian = test system: OVCAR-4 ovarian
LXFL 529 NSCLC = test system: LXFL 529 NSCLC
HCT-116 colon = test system: HCT-116 colon
MOLT-4 leukemia = test system: MOLT-4 leukemia
786-0 renal = test system: 786-0 renal
HT29 colon = test system: HT29 colon
HL-60(TB) leukemia = test system: HL-60(TB) leukemia
HOP-92 NSCLC = test system: HOP-92 NSCLC
HCT-15 colon = test system: HCT-15 colon
UACC-62 melanoma = test system: UACC-62 melanoma
DMS 114 small cell lung = test system: DMS 114 small cell lung
OVCAR-3 ovarian = test system: OVCAR-3 ovarian
U251 CNS = test system: U251 CNS
SK-MEL-5 melanoma = test system: SK-MEL-5 melanoma
SN12C renal = test system: SN12C renal
HOP-62 NSCLC = test system: HOP-62 NSCLC
MALME-3M melanoma = test system: MALME-3M melanoma
CCRF-CEM leukemia = test system: CCRF-CEM leukemia
SK-MEL-2 melanoma = test system: SK-MEL-2 melanoma
SF-539 CNS = test system: SF-539 CNS
XF 498 CNS = test system: XF 498 CNS
A549 NSCLC = test system: A549 NSCLC
M19-MEL melanoma = test system: M19-MEL melanoma

N#C/C(=C\c1c(Cl)cccc1Cl)c1ccccc1
TGI (TK-10 renal): > 100 µM
TGI (LOX IMVI melanoma): > 68.5 µM
TGI (HCC-2998 colon): > 100 µM
TGI (COLO 205 colon): 7.16 µM
TGI (M14 melanoma): > 76.3 µM
TGI (OVCAR-5 ovarian): > 100 µM
TGI (RPMI-8226 leukemia): > 100 µM
TGI (SR leukemia): 6.04 µM
TGI (EKVX NSCLC): > 100 µM
TGI (A498 renal): 25.4 µM
TGI (SF-268 CNS): > 100 µM
TGI (RXF 393 renal): 25.7 µM
TGI (NCI-H226 lung): > 48.9 µM
TGI (UO-31 renal): > 100 µM
TGI (SW-620 colon): > 100 µM
TGI (DLD-1 colon): > 100 µM
TGI (KM20L2 colon): 21.8 µM
TGI (HOP-18 NSCLC): > 100 µM
TGI (KM12 colon): > 100 µM
TGI (K-562 leukemia): > 100 µM
TGI (NCI-H23 lung): > 87.9 µM
TGI (RXF-631 renal): > 100 µM
TGI (CAKI-1 renal): > 100 µM
TGI (SNB-78 CNS): > 66.8 µM
TGI (SF-295 CNS): 65.5 µM
TGI (SK-MEL-28 melanoma): > 100 µM
TGI (IGROV1 ovarian): > 100 µM
TGI (NCI-H522 lung): 40.9 µM
TGI (SNB-75 CNS): 7.76 µM
TGI (SNB-19 CNS): 78.5 µM
TGI (SK-OV-3 ovarian): > 65.9 µM
TGI (DMS 273 small cell lung): 11.8 µM
TGI (ACHN renal): > 100 µM
TGI (NCI-H460 lung): > 58.5 µM
TGI (UACC-257 melanoma): > 100 µM
TGI (OVCAR-8 ovarian): > 100 µM
TGI (OVCAR-4 ovarian): > 96.3 µM
TGI (LXFL 529 NSCLC): > 100 µM
TGI (HCT-116 colon): > 100 µM
TGI (MOLT-4 leukemia): > 66.5 µM
TGI (786-0 renal): > 56.6 µM
TGI (HT29 colon): > 59.5 µM
TGI (HL-60(TB) leukemia): 15.9 µM
TGI (HOP-92 NSCLC): 41.1 µM
TGI (HCT-15 colon): > 100 µM
TGI (UACC-62 melanoma): > 31.3 µM
TGI (DMS 114 small cell lung): > 39.5 µM
TGI (OVCAR-3 ovarian): 19.9 µM
TGI (U251 CNS): > 90.1 µM
TGI (SK-MEL-5 melanoma): > 46.8 µM
TGI (SN12C renal): > 69.5 µM
TGI (HOP-62 NSCLC): > 31.4 µM
TGI (MALME-3M melanoma): 56 µM
TGI (CCRF-CEM leukemia): 11.9 µM
TGI (SK-MEL-2 melanoma): 39.3 µM
TGI (SF-539 CNS): 9.53 µM
TGI (XF 498 CNS): 33.4 µM
TGI (A549 NSCLC): > 100 µM
TGI (M19-MEL melanoma): > 100 µM

O=[N+]([O-])c1ccc(N=Nc2c(O)[nH]c3ccc(Br)cc23)cc1
TGI (TK-10 renal): 36 µM
TGI (LOX IMVI melanoma): 48.8 µM
TGI (HCC-2998 colon): > 100 µM
TGI (COLO 205 colon): > 68.7 µM
TGI (M14 melanoma): > 52.8 µM
TGI (RPMI-8226 leukemia): 45.6 µM
TGI (SR leukemia): > 53.9 µM
TGI (EKVX NSCLC): 58.9 µM
TGI (A498 renal): 49.1 µM
TGI (SF-268 CNS): 34.8 µM
TGI (RXF 393 renal): 35.6 µM
TGI (NCI-H226 lung): 37.2 µM
TGI (UO-31 renal): > 73.5 µM
TGI (SW-620 colon): > 100 µM
TGI (DLD-1 colon): > 46.8 µM
TGI (KM20L2 colon): > 100 µM
TGI (HOP-18 NSCLC): 40.6 µM
TGI (KM12 colon): > 100 µM
TGI (K-562 leukemia): > 43 µM
TGI (NCI-H23 lung): > 51.3 µM
TGI (RXF-631 renal): 33 µM
TGI (CAKI-1 renal): > 58.4 µM
TGI (SNB-78 CNS): 42.3 µM
TGI (SF-295 CNS): 25 µM
TGI (SK-MEL-28 melanoma): 32.9 µM
TGI (IGROV1 ovarian): > 53.2 µM
TGI (NCI-H522 lung): > 87.7 µM
TGI (SNB-75 CNS): > 48.1 µM
TGI (SNB-19 CNS): 36.6 µM
TGI (SK-OV-3 ovarian): 45.6 µM
TGI (DMS 273 small cell lung): 24 µM
TGI (ACHN renal): 42.7 µM
TGI (NCI-H460 lung): > 46.5 µM
TGI (UACC-257 melanoma): 43.4 µM
TGI (OVCAR-8 ovarian): 28.3 µM
TGI (OVCAR-4 ovarian): 33.4 µM
TGI (LXFL 529 NSCLC): > 68.7 µM
TGI (HCT-116 colon): 80.1 µM
TGI (MOLT-4 leukemia): > 51.7 µM
TGI (786-0 renal): 25.2 µM
TGI (HT29 colon): > 100 µM
TGI (HL-60(TB) leukemia): 25.2 µM
TGI (HOP-92 NSCLC): 26.5 µM
TGI (HCT-15 colon): > 74.3 µM
TGI (UACC-62 melanoma): > 51.2 µM
TGI (DMS 114 small cell lung): 47.7 µM
TGI (OVCAR-3 ovarian): 45.9 µM
TGI (U251 CNS): 38.2 µM
TGI (SK-MEL-5 melanoma): > 68 µM
TGI (SN12C renal): > 31.6 µM
TGI (HOP-62 NSCLC): 33.8 µM
TGI (MALME-3M melanoma): 58 µM
TGI (CCRF-CEM leukemia): > 49.1 µM
TGI (SK-MEL-2 melanoma): 99.2 µM
TGI (SF-539 CNS): 32.1 µM
TGI (XF 498 CNS): 53.7 µM
TGI (A549 NSCLC): 44.9 µM
TGI (M19-MEL melanoma): 34.7 µM
